# Assay results: US5508310A, “Immunopotentiatory agents and physiologically acceptable salts thereof” (Burroughs Wellcome Co., priority 1992, dated 1996)
# Several values for one entry are separate records, joined by “and”; a condition that tells them apart may be missing. Equal entries are not always repeated.
# Columns and labels:
# [1] = test system: mononuclear cell fraction of blood from healthy donors immunised with tetanus toxoid; format: cell-based, human (healthy donors)
# [2] = test system: mouse colon adenocarcinoma 38 (MCA38); assay: Antitumour activity: outgrowth of subcutaneously implanted mouse colon adenocarcinoma 38 (MCA38) in C57BL/6 mice; format: in vivo, mouse (C57BL/6); conditions: for Tumour weight on day 24 after tumour implantation (individual mice): intraperitoneally, every alternate day, 9 doses, individual animal values; for Mean % red. (tumour weight) / Median % red. (tumour weight): vs controls (group A); for Mean tumour weight on day 24: controls mean 0.635; for Median tumour weight on day 24: controls median 0.636
# Experimental: The activity of the tucaresol was evaluated against the outgrowth of subcutaneously implanted mouse colon adenocarcinoma 38 (MCA38) in female C57BL/6 mice, using the following protocol:
# Day 0 Fifteen, female and 16 male C57BL/6 mice each im-
# planted subcutaneously with one 2 mm cube of tumour.
# Mice randomized and divided into three groups -
# Group A, 5 females and 5 males, Group B, 5 females
# and 5 males, Group C, 5 females and 6 males.
# Day 5 Test groups B and C each dosed with 589C80 (1 mg or
# to 0.2 mg per mouse dissolved in 0.2 ml PBS,
# intraperitoneally) once every alternate day (total of 9
# doses). Control mice (group A) given PBS alone.
# All mice killed, tumours excised and weighed. Mean and
# median tumour weight in test group compared with
# Tucaresol was dissolved in PBS by dropwise addition of 1M KOH to pH 10.0 followed by dropwise addition of conc. HCL to return pH to neutral.
# Dosing schedule where drug was given on alternate days was chosen in order to extend the dosing period over 14 rather than 7 days. By so doing tumours were exposed to the drug from day 13 right up until […] i.e. 2 days before the experiment was terminated.
# Pneumocystis carinii = conditions: AIDS patients; Wofsy 1986; cited from earlier work
compound,measurement,setting,value
"O=CCCc1ccccc1 [Compound 5, 3-Phenylproponion-aldhyde]",IC50 Ratio with 4-Hydroxyphenylacetaldehyde,[1],40
O=Cc1c(O)cccc1OCc1ccc(C(=O)O)cc1 [Tucaresol],Tumour weight on day 24 after tumour implantation (individual mice),"[2]; Group B, 1.0 mg/mouse",0.740 grammes and 0.695 grammes and 0.358 grammes and 0.303 grammes and 0.298 grammes and 0.090 grammes and 0.079 grammes and 0.038 grammes and 0.022 grammes
same,Mean % red. (tumour weight),"[2]; Group B, 1.0 mg/mouse",54.2%
same,Median % red. (tumour weight),"[2]; Group B, 1.0 mg/mouse",53.15%
same,Mean tumour weight on day 24,"[2]; Group B, 1.0 mg/mouse, S.D. 0.272",0.291 grammes
same,Median tumour weight on day 24,"[2]; Group B, 1.0 mg/mouse",0.298 grammes
same,Tumour weight on day 24 after tumour implantation (individual mice),"[2]; Group C, 0.2 mg/mouse",0.802 grammes and 0.272 grammes and 0.230 grammes and 0.197 grammes and 0.181 grammes and 0.126 grammes and 0.085 grammes and 0.029 grammes and 0.019 grammes and 0.006 grammes
same,Mean % red. (tumour weight),"[2]; Group C, 0.2 mg/mouse",70.4%
same,Median % red. (tumour weight),"[2]; Group C, 0.2 mg/mouse",80.19%
same,Mean tumour weight on day 24,"[2]; Group C, 0.2 mg/mouse, S.D. 0.222",0.188 grammes
same,Median tumour weight on day 24,"[2]; Group C, 0.2 mg/mouse",0.126 grammes
same,Inhibition of outgrowth of subcutaneously implanted MCA38,"[2]; syngeneic C57BL/6 mice, result in words",inhibited the outgrowth
N=C(N)c1ccc(OCCCCCOc2ccc(C(=N)N)cc2)cc1 [pentamidine],Effectiveness in Pneumocystis carinii pneumonia,Pneumocystis carinii,50-70%
same,Incidence of adverse reactions,Pneumocystis carinii,around 50%
trimethoprim-sulphamethoxazole,Effectiveness in Pneumocystis carinii pneumonia,Pneumocystis carinii,50-70%
